Data as given in patent US20230372381A1, “COMPOSITIONS AND METHODS UTILIZING PROTEIN INHIBITORS FOR […] INHIBITION AND TREATMENT OF SARS-CoV-2” (Rensselaer Polytechnic Institute, priority 2020, published 2023).
“Also recorded” adds a separate entry of the source. Where two headings read alike, the source gives them in different places.

Assays:
SARS-CoV-2 [1] = assay: Combination antiviral (synergy) assay with remdesivir; format: cell-based; conditions: for Synergy Score: combination with remdesivir, SynergyFinder, ZIP method; for interaction with remdesivir (additive or synergistic): inhibition of SARS-CoV-2 replication in combination with remdesivir
SARS-CoV-2 [2] = assay: SARS-CoV-2 viral replication assay in Vero E6 cells; format: cell-based
in vitro [3] = conditions: human
SARS-CoV-2 [4] = assay: microbe, parasite or virus in culture; format: cell-based
in vitro [5] = conditions: African green monkey
Procedure: (§1) Cytotoxicity was also performed using the MTT assay (Roche), according to the manufacturer's instructions. Cytotoxicity was performed in uninfected VeroE6 cells with same compound dilutions and concurrent with viral replication assay. All assays were performed in biologically independent triplicates.

SARS-CoV-2 PL^pro = SARS-CoV-2 PL^pro (Severe acute respiratory syndrome coronavirus 2, UniProt P0DTD1); assay: PL^pro fluorescence proteolysis assay (zRLRGG/AMC substrate); format: biochemical; conditions: for Relative PL^pro Inhibition: estimated IC50 class
SARS-CoV-2 M^pro [6] = biological target: T1, SARS-CoV-2 M^pro (Severe acute respiratory syndrome coronavirus 2, UniProt P0DTD1); assay: M^pro protease inhibition (FRET assay); format: biochemical; conditions: for Relative M^pro Inhibition: estimated IC50 class
SARS-CoV-2 M^pro [7] = biological target: T1, SARS-CoV-2 M^pro; assay: M^pro 1D 1H-NMR proteolysis assay; format: biochemical; conditions: 50 μM inhibitor
Vero E6 cells = assay: Cytotoxicity MTT assay in Vero E6 cells; conditions: cytotoxicity, Vero E6 Cells
Procedure: as §1

HEK 293T cells = assay: Cytotoxicity in HEK 293T cells; conditions: cytotoxicity, HEK 293T Cells
[8] = Cytotoxicity MTT assay in Vero E6 cells; conditions: African green monkey
Procedure: as §1

[9] = Cytotoxicity in HEK 293T cells; conditions: human
[10] = Severe acute respiratory syndrome coronavirus 2, Vero C1008, viral replication, Vero E6 Cells, read-out: IC50
[11] = Severe acute respiratory syndrome coronavirus 2, viral replication, HEK 293T Cells (hACE2-293T), read-out: IC50
[12] = Severe acute respiratory syndrome coronavirus 2, Vero C1008
[13] = Severe acute respiratory syndrome coronavirus 2, HEK-293T

Row | Structure (SMILES) | Synergy Score (SARS-CoV-2 [1]) | IC50 (SARS-CoV-2 [2]; [10]) | CC50 (in vitro [3]) | IC50 (SARS-CoV-2 [4]; [11]) | interaction with remdesivir (additive or synergistic) (SARS-CoV-2 [1]) | inhibition of PL^pro protease activity (words) (SARS-CoV-2 PL^pro) | inhibition of M^pro activity (words) (SARS-CoV-2 M^pro [6]) | M^pro inhibition in the NMR assay (SARS-CoV-2 M^pro [7]) | Relative PL^pro Inhibition (SARS-CoV-2 PL^pro) | CC50 (Vero E6 cells) | Relative M^pro Inhibition (SARS-CoV-2 M^pro [6]) | also measured
1 | CC(C)(C)NC(=O)N[C@H](C(=O)N1C[C@H]2[C@@H]([C@H]1C(=O)NC(CC1CCC1)C(=O)C(N)=O)C2(C)C)C(C)(C)C (stereo partly drawn) [BOC, boceprevir] | −7.6 | 19.6 µM | > 50 µM | 5.4 µM |  |  |  |  |  |  |  | CC50 (in vitro [5]): > 50 µM
2 | CC(=O)Nc1ccc(C)c(C(=O)N[C@H](C)c2cccc3ccccc23)c1 [Compound 6] |  |  |  |  | synergy with remdesivir | specifically inhibits PL^pro | not M^pro |  |  |  |  | 
3 | C=C[C@@H]1C[C@]1(NC(=O)[C@@H]1C[C@@H]2CN1C(=O)[C@H](C(C)(C)C)NC(=O)O[C@@H]1C[C@H]1CCCCCc1nc3ccc(OC)cc3nc1O2)C(=O)NS(=O)(=O)C1CC1.O [GRZ, grazoprevir] | +25.0 |  |  |  | synergistic | did inhibit PL^pro protease activity | moderately inhibit; also recorded: inhibited both M^pro and PL^pro | moderate inhibitors of M^pro | moderate (moderate to an estimated IC50 in the range 20-50 μM) | > 50 µM | moderate (moderate to an estimated IC50 in the range 20-50 μM) | interaction with remdesivir (additive or synergistic) (SARS-CoV-2 [1]; listed as grazoprevir): synergized with remdesivir; IC50 (SARS-CoV-2 [2]; viral replication, Vero E6 Cells, read-out: IC50): 10.8 µM; IC50 (SARS-CoV-2 [4]; viral replication, HEK 293T Cells (hACE2-293T), read-out: IC50): 16.7 µM; CC50 (HEK 293T cells): > 50 µM
4 | CCCC[C@H](NC(=O)[C@@H]1[C@@H]2[C@H](CN1C(=O)[C@@H](NC(=O)NC1(CS(=O)(=O)C(C)(C)C)CCCCC1)C(C)(C)C)C2(C)C)C(=O)C(=O)NC1CC1 [NAR, narlaprevir] | −3.6 |  |  |  |  |  |  |  |  |  |  | IC50 (SARS-CoV-2 [2]; [12]): 7.7 µM; CC50 [8]: > 20 µM; IC50 (SARS-CoV-2 [4]; [13]): 15 µM; CC50 (HEK 293T cells): 72 µM
5 | Cc1cnc(C(=O)N[C@H]2CCCCC/C=C\[C@@H]3C[C@@]3(C(=O)NS(=O)(=O)C3CC3)NC(=O)[C@@H]3C[C@@H](Oc4nc5ccccc5c5ccccc45)CN3C2=O)cn1 [PAR, paritaprevir] | +17.3 | 6 µM | > 100 µM | 0.55 µM | synergistic | did inhibit PL^pro protease activity | not M^pro |  | moderate (moderate to an estimated IC50 in the range 20-50 μM) |  | none (none indicates no observed inhibition of protease activity at drug concentrations of 50 μM) | interaction with remdesivir (additive or synergistic) (SARS-CoV-2 [1]; listed as paritaprevir): synergized with remdesivir; CC50 (in vitro [5]): > 100 µM
6 | COc1ccc2c(O[C@@H]3C[C@H]4C(=O)N[C@]5(C(=O)NS(=O)(=O)C6CC6)C[C@H]5/C=C\CCCCN(C)C(=O)[C@@H]4C3)cc(-c3nc(C(C)C)cs3)nc2c1C [SIM, simeprevir] | +30.2 | 4.2 µM | > 50 µM | 2.3 µM | synergistic | did inhibit PL^pro protease activity | moderately inhibit; also recorded: inhibited both M^pro and PL^pro | moderate inhibitors of M^pro | strong (Strong inhibition corresponds to an estimated IC50 < about 20 μM) | 2.1 µM | moderate (moderate to an estimated IC50 in the range 20-50 μM) | interaction with remdesivir (additive or synergistic) (SARS-CoV-2 [1]; listed as simeprevir): synergized with remdesivir
7 | CC[C@@H]1C[C@]1(NC(=O)[C@@H]1C[C@@H]2CN1C(=O)[C@H](C(C)(C)C)NC(=O)OCC(C)(C)CCCCc1cccc3c1CN(C3)C(=O)O2)C(=O)NS(=O)(=O)C1CC1 [VAN, vaniprevir] | +10.9 |  |  |  | synergistic |  |  | inhibitory activity comparable to telaprevir | strong (Strong inhibition corresponds to an estimated IC50 < about 20 μM) | 4.3 µM | strong (Strong inhibition corresponds to an estimated IC50 < about 20 μM) | interaction with remdesivir (additive or synergistic) (SARS-CoV-2 [1]; listed as vaniprevir): synergized with remdesivir; IC50 (SARS-CoV-2 [2]; [12]): 6.2 µM; inhibition of PL^pro protease activity (words) (SARS-CoV-2 PL^pro; listed as Vaniprevir): good inhibitor of both M^pro and PL^pro; inhibition of PL^pro protease activity (words) (SARS-CoV-2 PL^pro; listed as vaniprevir): did inhibit PL^pro protease activity; IC50 (SARS-CoV-2 [4]; [13]): 3 µM; inhibition of M^pro activity (words) (SARS-CoV-2 M^pro [6]; listed as Vaniprevir): good inhibitor of both M^pro and PL^pro; inhibition of M^pro activity (words) (SARS-CoV-2 M^pro [6]; listed as vaniprevir): inhibited both M^pro and PL^pro; CC50 [9]: > 50 µM
8 | C=C[C@@H]1C[C@]1(NC(=O)[C@@H]1C[C@@H](Oc2ncc(OC)c3ccc(Cl)cc23)CN1C(=O)[C@@H](NC(=O)OC(C)(C)C)C(C)(C)C)C(=O)NS(=O)(=O)C1CC1 [asunaprevir] |  |  |  |  |  |  | moderately inhibit |  |  |  |  | 
